The values that follow come from US11370773B1, “Inhibiting human integrin (alpha-4) (beta-7)” (Morphic Therapeutic, Inc., priority 2019, dated 2022).

For one test, the target named is T1, integrin α4β7 (Homo sapiens, UniProt P13612+P26010).
T1 sequence (P13612 34-977 limits assumed): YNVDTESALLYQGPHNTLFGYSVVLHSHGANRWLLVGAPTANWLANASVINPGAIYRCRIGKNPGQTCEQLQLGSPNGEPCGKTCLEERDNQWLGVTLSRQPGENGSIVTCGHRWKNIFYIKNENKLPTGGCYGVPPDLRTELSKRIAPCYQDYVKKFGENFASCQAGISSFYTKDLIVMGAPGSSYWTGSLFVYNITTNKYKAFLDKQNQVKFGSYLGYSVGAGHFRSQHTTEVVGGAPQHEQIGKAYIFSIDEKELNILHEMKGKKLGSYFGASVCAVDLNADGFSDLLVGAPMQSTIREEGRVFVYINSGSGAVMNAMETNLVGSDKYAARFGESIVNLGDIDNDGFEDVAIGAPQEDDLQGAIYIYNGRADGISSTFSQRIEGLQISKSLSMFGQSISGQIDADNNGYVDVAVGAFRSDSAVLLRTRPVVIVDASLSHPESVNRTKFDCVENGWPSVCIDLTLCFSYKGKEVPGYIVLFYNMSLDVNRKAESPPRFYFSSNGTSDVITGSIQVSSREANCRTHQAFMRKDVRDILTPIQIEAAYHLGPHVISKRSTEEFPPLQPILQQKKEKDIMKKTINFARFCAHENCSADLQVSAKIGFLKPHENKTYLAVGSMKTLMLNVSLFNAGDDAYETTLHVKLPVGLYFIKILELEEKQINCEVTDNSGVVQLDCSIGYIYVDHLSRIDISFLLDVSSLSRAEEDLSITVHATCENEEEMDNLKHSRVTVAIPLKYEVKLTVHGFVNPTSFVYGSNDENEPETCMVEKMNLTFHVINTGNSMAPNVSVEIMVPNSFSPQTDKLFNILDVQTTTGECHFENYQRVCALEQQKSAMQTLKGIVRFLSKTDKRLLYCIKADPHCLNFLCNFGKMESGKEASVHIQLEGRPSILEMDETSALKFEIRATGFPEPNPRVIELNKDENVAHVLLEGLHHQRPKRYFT
T1 sequence (P26010 20-723 limits assumed): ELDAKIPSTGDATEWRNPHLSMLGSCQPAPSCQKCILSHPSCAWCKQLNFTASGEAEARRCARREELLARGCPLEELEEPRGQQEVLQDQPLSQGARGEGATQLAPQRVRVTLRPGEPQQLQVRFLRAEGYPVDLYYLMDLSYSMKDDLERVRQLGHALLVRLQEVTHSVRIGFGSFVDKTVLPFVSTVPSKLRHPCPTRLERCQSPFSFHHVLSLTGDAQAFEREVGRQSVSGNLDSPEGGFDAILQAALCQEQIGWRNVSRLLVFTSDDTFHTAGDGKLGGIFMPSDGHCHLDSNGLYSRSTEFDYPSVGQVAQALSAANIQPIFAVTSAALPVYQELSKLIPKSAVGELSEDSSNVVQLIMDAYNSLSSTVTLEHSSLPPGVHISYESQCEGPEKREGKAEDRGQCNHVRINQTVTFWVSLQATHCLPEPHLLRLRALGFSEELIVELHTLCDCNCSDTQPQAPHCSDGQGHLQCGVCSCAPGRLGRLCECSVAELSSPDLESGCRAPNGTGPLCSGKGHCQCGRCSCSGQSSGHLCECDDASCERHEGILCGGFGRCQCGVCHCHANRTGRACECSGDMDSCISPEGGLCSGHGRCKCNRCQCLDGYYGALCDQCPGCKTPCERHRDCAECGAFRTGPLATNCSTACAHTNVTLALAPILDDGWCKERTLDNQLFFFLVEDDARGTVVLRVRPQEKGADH
As to the kind of experiment: Fluorescence Polarization (FP) assay for α4β7 binding, competition with fluorescein-labeled peptide. To be noted: 6.5 nM integrin α4β7, 3 nM fluorescein-labeled peptide, 2 mM MnCl2; read-out: FP Assay (Example 5) IC50. The procedure: (§1) Three in vitro assays were used to examine the α4β7 mechanistic process used by cells: 1) ligand:receptor affinity, 2) the avidity of those interactions on a cell's surface, and 3) how those interactions fare under an imposing force. In Example 5, a Fluorescence Polarization (FP) assay is used to measure compound activity through binding competition with the fluorescein-labeled peptide. In Example 6, the potency of compounds against α4β7 is measured in the cell-based ligand binding assay (LBA), using RPMI 8866 cells incubated with the compound samples in competition with soluble MAdCAM-1 ligand. In Example 7, activity of compounds is evaluated in a cell adhesion assay that mechanistically tests what occurs in vivo when trafficking cells utilize α4β7 to adhere to MAdCAM-1 expressing HEVs of the gut during the extravasation process. In the cell adhesion assay of Example 7, a MAdCAM1-(Fc) is coated on plastic, and α4β7 expressing cells (RPMI-8866) are allowed to adhere to the coated surface in the presence of the test compounds. Next, the force of washing with buffer is applied to cells thereby testing the strength of that adhesion. Unattached cells are removed and the remaining adherent cells are quantified.
Fluorescence Polarization (FP) assays were used to measure compound activity through binding competition with the fluorescein-labeled peptide […]{Lys(FITC)}. In the assay, 6.5 nM of integrin α4β7 was incubated with the test compound in 2 mM manganese chloride, 0.1 mM calcium chloride, 20 mM HEPES buffer at pH 7.3, 150 mM sodium chloride, 0.01% Triton X-100, 2% DMSO, and 3 nM of the fluorescein-labeled peptide. Running the assays in 384-well plates, the integrin protein was pre-incubated with the test compounds for 15 minutes at 22° C. before the fluorescein-labeled peptide was added. After the fluorescein-labeled peptide was added, the assay was incubated at 22° C. for 1 hour and fluorescence polarization was measured. IC50 values were determined by non-linear regression, four-parameter curve fitting.

In another test the target is T2, α4β7 (Homo sapiens, UniProt P13612+P26010).
T2 construct: α4β7 expressing cells (RPMI-8866); endogenous in cells; host or cells: RPMI 8866
T2 sequence (P13612 34-1032): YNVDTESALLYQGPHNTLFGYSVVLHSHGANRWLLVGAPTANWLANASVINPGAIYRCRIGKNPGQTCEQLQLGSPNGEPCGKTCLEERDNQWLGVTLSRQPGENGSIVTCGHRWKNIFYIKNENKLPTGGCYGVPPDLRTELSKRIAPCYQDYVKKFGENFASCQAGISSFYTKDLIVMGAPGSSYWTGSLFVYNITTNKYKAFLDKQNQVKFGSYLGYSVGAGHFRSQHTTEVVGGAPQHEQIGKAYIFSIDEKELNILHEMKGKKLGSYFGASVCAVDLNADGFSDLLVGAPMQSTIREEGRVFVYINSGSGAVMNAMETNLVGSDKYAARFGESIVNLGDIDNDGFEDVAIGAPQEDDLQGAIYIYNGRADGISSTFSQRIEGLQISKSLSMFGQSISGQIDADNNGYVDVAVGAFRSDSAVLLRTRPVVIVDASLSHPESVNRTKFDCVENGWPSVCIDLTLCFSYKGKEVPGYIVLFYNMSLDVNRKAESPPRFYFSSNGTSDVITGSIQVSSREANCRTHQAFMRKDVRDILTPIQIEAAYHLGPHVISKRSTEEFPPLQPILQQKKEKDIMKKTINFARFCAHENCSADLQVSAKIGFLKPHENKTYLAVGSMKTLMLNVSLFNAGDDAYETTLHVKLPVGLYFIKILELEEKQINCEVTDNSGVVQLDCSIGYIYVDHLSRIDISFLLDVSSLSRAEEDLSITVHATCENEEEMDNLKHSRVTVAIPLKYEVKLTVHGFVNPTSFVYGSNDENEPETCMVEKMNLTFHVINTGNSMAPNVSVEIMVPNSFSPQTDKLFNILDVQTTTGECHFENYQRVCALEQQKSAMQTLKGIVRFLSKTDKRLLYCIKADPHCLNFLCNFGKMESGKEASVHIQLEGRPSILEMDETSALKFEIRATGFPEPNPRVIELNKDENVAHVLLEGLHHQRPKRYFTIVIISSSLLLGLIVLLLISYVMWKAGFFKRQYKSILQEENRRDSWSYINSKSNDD
T2 sequence (P26010 20-798): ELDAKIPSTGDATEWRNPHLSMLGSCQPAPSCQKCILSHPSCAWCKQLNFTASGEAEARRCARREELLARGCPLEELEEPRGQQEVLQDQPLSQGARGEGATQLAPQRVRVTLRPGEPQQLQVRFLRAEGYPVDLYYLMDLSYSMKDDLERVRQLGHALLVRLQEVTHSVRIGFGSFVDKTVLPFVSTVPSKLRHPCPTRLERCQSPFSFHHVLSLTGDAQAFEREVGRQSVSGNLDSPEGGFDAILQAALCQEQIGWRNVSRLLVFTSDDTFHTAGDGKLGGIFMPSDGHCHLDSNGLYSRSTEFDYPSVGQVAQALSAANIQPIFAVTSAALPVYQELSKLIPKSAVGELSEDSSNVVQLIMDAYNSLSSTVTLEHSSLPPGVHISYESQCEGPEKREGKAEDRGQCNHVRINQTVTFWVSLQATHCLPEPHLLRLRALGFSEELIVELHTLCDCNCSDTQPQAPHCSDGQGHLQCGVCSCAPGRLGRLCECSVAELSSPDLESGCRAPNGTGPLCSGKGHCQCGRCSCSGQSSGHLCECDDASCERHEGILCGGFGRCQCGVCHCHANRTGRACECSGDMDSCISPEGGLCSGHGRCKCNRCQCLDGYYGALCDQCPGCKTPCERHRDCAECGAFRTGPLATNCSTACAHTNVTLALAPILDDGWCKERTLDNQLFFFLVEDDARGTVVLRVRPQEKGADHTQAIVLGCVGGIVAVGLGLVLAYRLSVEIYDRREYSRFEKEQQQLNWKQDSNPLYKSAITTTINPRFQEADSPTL
The test can be described thus: Cell adhesion assay, RPMI8866 cells adhering to MAdCAM coated plates. The format is cell-based. The following applies: RPMI8866 cells on recombinant human MAdCAM coated plates; read-out: CA Assay (Example 7) IC50. On the procedure:
as §1
Example 7 describes a cell adhesion assay.
To each well of a 96 well plate, 100 ug of recombinant human MAdCAM in 100 ul PBS is added and incubated overnight at 4° C. After incubation MAdCAM is removed by aspiration and 200 ul of PBS+1% BSA is added to block the plate for 2 hours at 37° C. and 5% CO2. During this incubation dilution curves of compound are made in 100% DMSO in 96 well V bottom plates. 1.75 ul of diluted compounds are then transferred to a new 96 well U bottom plate containing 20 ul of assay media (phosphate free DMEM+25 mM HEPES+1% BSA). To this an additional 155 ul of assay media is added with mixing by pipetting up and down. This mixture is allowed to incubate for 15 minutes at 37° C. and 5% CO2. After incubation 175 ul of assay media containing 2e6/mL RPMI8866 cells is added to compound containing wells without mixing and plate is allowed to incubate for another 15 minutes at 37° C. and 5% CO2. During this incubation MAdCAM coated plates are removed from incubator and washed twice with 200 ul PBS+0.1% BSA. […] This plate is then incubated at 37° C. and 5% CO2 for 1 hour. After incubation plates are washed twice with 200 ul and once with 50 ul of phenol free RPMI+1% BSA. A final 50 ul of phenol free RPMI+1% BSA is added to wells after last wash. Next 50 ul of Promega cell titer glow is added to the wells. Plate is incubated on shaker for 2 minutes at 200 RPM followed by another 8 minutes off shaker before having the luminescence read on a Biotek Citation 5 plate reader. Raw data is converted to % inhibition compared to bottom of curve and analyzed using a 4-parameter non linear curve in Prism to determine IC50 and IC90.

Consider `Cc1cc(C)c(-c2cc(C)c(F)c([C@H](CC(=O)O)NC(=O)C(CC(C)C)n3cc(CCN(C)C)c(C(F)(F)F)cc3=O)c2)c(C)c1` (single isomer, unassigned) [AC-P2], for which the IC50 at integrin α4β7 was at most 10 nM.
On to `Cc1cc(-c2c(C)cccc2C)cc([C@H](CC(=O)O)NC(=O)[C@H](CC(C)C)n2cc(CCN3CC[C@@H](F)C3)cc(F)c2=O)c1F` (single isomer, unassigned) [AU-P2], for which the IC50 on α4β7 is under 5 nM.
